According to patent US8653260B2, “Hydroxymethyl pyrrolidines as beta 3 adrenergic receptor agonists” (Merck Sharp & Dohme Corp., priority 2008, dated 2014):
Where two headings read alike, the source gives them in different places.

Experiments:
[1] = molecular target: T1, human β3 adrenergic receptor (Homo sapiens, UniProt P13945); experiment: Functional assay: cAMP production (LANCE) in CHO cells expressing β3 adrenergic receptor; type: cell-based
T1 construct: expressed in transfected cells; host or cells: CHO cells, stably transfected
Method: Chinese hamster ovary (CHO) cells, stably transfected with the cloned β-adrenergic receptor (β1, β2 or β3) are harvested after 3 days of subculturing. Harvesting of cells is done with Enzyme-free Dissociation Media (Specialty Media). Cells are then counted and resuspended in assay buffer (Hank's Balanced salt solution supplemented with 5 mM HEPES, 0.1% BSA) containing a phosphodiesterase inhibitor (IBMX, 0.6 mM). The reaction is initiated by mixing 6,000 cells in 6 μL with 6 μL Alexa Fluor labeled cAMP antibody (LANCE™ kit) which is then added to an assay well containing 12 μL of compound (diluted in assay buffer to 2× final concentration). The reaction proceeds for 30 min at room temperature and is terminated by the addition of 24 μL detection buffer (LANCE™ kit). The assay plate is then incubated for 1 h at room temperature and time-resolved fluorescence measured on a Perkin Elmer Envision reader or equivalent. The unknown cAMP level is determined by comparing fluorescence levels to a cAMP standard curve.
The non-selective, full agonist β-adrenergic ligand isoproterenol is used at all three receptors to determine maximal stimulation. […] Data are analyzed using Microsoft Excel and Graphpad Prism or an internally developed data analysis software package.

rats = conditions: intravenous administration, cited from earlier work
[2] = cAMP production, CHO cells, given as a range, read-out: human β3 functional activity

T1 sequence (P13945 whole entry): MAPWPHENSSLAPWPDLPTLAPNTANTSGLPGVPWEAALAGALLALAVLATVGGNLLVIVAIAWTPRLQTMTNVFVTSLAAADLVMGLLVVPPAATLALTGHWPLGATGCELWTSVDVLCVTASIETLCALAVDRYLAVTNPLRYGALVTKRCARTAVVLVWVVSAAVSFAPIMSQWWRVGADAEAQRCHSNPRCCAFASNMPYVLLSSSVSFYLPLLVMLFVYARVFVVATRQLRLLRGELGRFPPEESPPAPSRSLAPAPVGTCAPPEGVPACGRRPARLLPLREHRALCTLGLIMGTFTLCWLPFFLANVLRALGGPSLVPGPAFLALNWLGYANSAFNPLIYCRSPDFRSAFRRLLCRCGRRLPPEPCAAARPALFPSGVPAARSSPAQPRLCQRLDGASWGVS

For `O=C(Nc1ccc(C[C@@H]2CC[C@H]([C@H](O)c3ccccc3)N2)cc1)[C@@H]1CCc2cccc(=O)n21` (single isomer, unassigned) [Example 101], the EC50 [1, 2] was 1 to 10 nM.
`O=C(Nc1ccc(C[C@@H]2CC[C@H]([C@H](O)c3ccccc3)N2)cc1)C1CCc2cccc(=O)n21` (single isomer, unassigned) [Example 102] gave an EC50 [1, 2] of less than 1 nM.
With `CC(C(=O)Nc1ccc(C[C@@H]2CC[C@H]([C@H](O)c3ccccc3)N2)cc1)n1ccccc1=O` (single isomer, unassigned) [Example 203] the EC50 ([1]; Table 5, read-out: Human β3 Functional) was 1 to 10 nM.
`Nc1nc2c(s1)CCC2C(=O)Nc1ccc(CC2CCC(C(O)c3ccc(F)cc3)N2)cc1` (single isomer, unassigned) [Example 308] showed an EC50 ([1]; human β3 functional activity, given as ranges, read-out: Human β3 Functional) of 1 to 10 nM.
In the case of `C[C@H](Cc1ccc2c(c1)OC(C(=O)[O-])(C(=O)[O-])O2)NC[C@H](O)c1cccc(Cl)c1.[Na+].[Na+]` [CL316243], the bladder capacity (rats; cystometric studies) is given as “increases bladder capacity” and the bladder pressure (rats) is given as “reduces bladder pressure”.
`Cc1nc(CC(=O)Nc2ccc(C[C@@H]3CC[C@H]([C@H](O)c4ccccc4)N3)cc2)c(C)s1` [Example 10] showed an EC50 ([1]; Table 4, text b832: human β3 functional activity, read-out: Human β3 Binding) of 1 to 10 nM.
